# Experimental data: patent US9206206B2, “Oxidized lipid compounds and uses thereof” (Vascular Biogenics Ltd., priority 2008, dated 2015)
# “Also recorded” adds a separate entry of the source.
# How the values were obtained:
# [1] = test system: IL12/23 p40 mRNA; assay: In vitro IL12/23 p40 mRNA expression assay; format: cell-based, mouse; settings: CD11c+ dendritic cells, 20 μg/ml, 10 μg/ml peptidoglycan, 2-4 hours following administration
# Method: In Vitro IL12/23 p40 mRNA Expression Assay:
# Bone marrow-derived cell cultures were prepared as described hereinabove. On days 5-6 post culturing, the cell cultures were enriched for CD11c+ dendritic cells (>90%) with mouse CD11c microbeads over MS or LS columns (Miltenyi Biotech). CD11c+ dendritic cells were stimulated for 1, 2 and 3 hours with 10 μg/ml peptidoglycan alone or in the presence of 20 μg/ml of the tested compound added 1 hour before activation. RNA was extracted from cells using RNeasy mini kit (Qiagen, Valencia, Calif.). For cDNA preparation, 1 μg of RNA was combined with Oligo dT for 10 minutes at 70° C., 1st strand buffer. Dithiothreitol and dNTP and super-script reverse transcriptase (Invitrogen, Carlsbad, Calif.) were added for 50 minutes at 42° C. and the reaction was ended by incubation for an additional 15 minutes at 70° C. All real time PCR reactions were performed using LightCycler Taqman master (Roche Diagnostics, Mannheim, Germany) and run on the LightCycler machine (Roche). Ready sets of probe with primers were used for IL12/23 p40 and GAPDH assays (Applied Biosystems, assays #Mm01288992_m1 and Mm99999915_g1, respectively) with the latter served to normalize RNA levels. 20 μg/ml CI-201 and phosphatidylcholine (PC) were used as positive and negative controls respectively.
# [2] = test system: tyrosine phosphorylation in primary macrophages; assay: Tyrosine phosphorylation assay in primary macrophages (Western blot); format: cell-based, mouse
# Method: Tyrosine Phosphorylation Assay: Tyrosine phosphorylation in macrophages or bone marrow-derived cells (BMDCs) of mice was assayed. Mouse primary macrophages were isolated from the peritoneum of 7-8 week old C57BL/6 female mice following thioglycollate stimulation. […] Mouse primary bone marrow-derived cells were isolated by flushing bone marrow out of the femur and tibia of female SJL mice using cold RPMI-1640. […] Cells were then washed, resuspended in the same buffer and depleted of B and T cells on a Midi-Macs separation unit through a LD or LS column (Miltenyi Biotech). […] The medium was replaced every other day. […] Proteins with phosphorylated tyrosine were then observed by Western blot, using a monoclonal anti-phosphotyrosine antibody. Western blotting for ERK1/2 or α-tubulin was performed as a control for protein loading.
# [3] = test system: DBA/1 male mice; assay: In vivo collagen-induced arthritis (CIA) assay; design: species or system mouse
# Method: In Vivo Collagen-Induced Arthritis (CIA) Assay:
# DBA/1 male mice were immunized to induce arthritis by a collagen injection containing complete Freund's adjuvant (CFA) in the base of the tail (day 0) and a booster shot in the flank (day 21). Mice were followed for arthritis development until day 36. Administration by gavage of the tested compound and control substances began on day 22 and was carried out on a daily basis (6 times per week).
# Onset of arthritis was evaluated by an arthritis clinical score.
# [4] = test system: C57BL/6 mice; assay: In vivo MOG-induced experimental autoimmune encephalomyelitis (EAE) assay; design: species or system mouse; settings: 4 mg/kg orally, 5 consecutive days starting 5 days before immunization
# Method: In Vivo Myelin Oligodendrocyte Glycoprotein (MOG)-Induced Experimental Autoimmune Encephalomyelitis (EAE) Assay:
# C57BL/6 mice were orally administered with the indicated amount of the tested compound in a final volume of 200 μl for 5 consecutive days starting 5 days before immunization.
# For EAE induction, mice were immunized subcutaneously with an emulsion containing 1.5 mg/ml MOG peptide 35-55 ([…]) and 2.5 mg/ml CFA (complete Freund's adjuvant), 100 μl emulsion being injected into each flank. Pertussis toxin (500 ng in 500 μl PBS) was administered intraperitoneally immediately and 48 hours after the immunization.
# Onset of EAE was evaluated by a mean clinical score.
# [5] = test system: IL12/23 p40; assay: In vitro IL12/23p40 production assay; format: cell-based, mouse; settings: bone marrow-derived cells, compound 1, 2.5, 5, 10 or 20 μg/ml for 1 hour, then 10 μg/ml peptidoglycan 24 hours, ELISA
# Method: In Vitro IL12/23p40 Production Assay:
# Bone marrow derived cells (BMDCs) were obtained from the femur and tibia of female C57BL mice, cultured, and seeded at a concentration of 10^6 cells/ml 5-6 days post-culturing, as described hereinabove for the tyrosine phosphorylation assay.
# The tested compound was then added to the cells for 1 hour at a concentration of 1, 2.5, 5, 10 or 20 μg/ml. The cells were activated for IL12/23p40 production by incubation for 24 hours with 10 μg/ml peptidoglycan (PGN). Cytokine production from the supernatant was measured by ELISA. Activated cells without the tested compound were used as the control.
# [6] = test system: mouse peritoneal macrophages; assay: In vitro toxicity assay; format: cell-based
# Method: Thioglycollate-elicited mouse peritoneal macrophages were washed, counted and seeded (2×10^5 to 3×10^5 cells per well in 24-well plates) in triplicate wells in medium containing RPMI-1640, L-glutamine, 10% FBS and antibiotics (penicillin/streptomycin). After a recovery period of 24 hours, the tested compound (or controls) was added to the cell medium at doses of 2, 10, 20, 50, 100 or 150 μg/ml, keeping the added volume equal in all treatments by complementing the volume with solvent.
# Following addition of the compounds, the cells were incubated for an additional 24 hours, after which the cells were washed, fixed with a solution of 10% methanol/10% acetic acid and stained with crystal violet (0.4% in 20% ethanol). Cell numbers were measured by determining optical density at 595 nm. Cells incubated with vehicle (PBS with 1% ethanol) were used as a control, to which cell numbers in treated samples were normalized.
# Data are presented as mean±standard deviation. Statistical significance relative to vehicle-treated cells was calculated using a student's t-test, with p-values of less than 0.05 being considered as indicating statistical significance.
# [7] = test system: LDL-RD male mice; assay: In vivo atherosclerotic lesion assay, LDL-RD mice; settings: 1 mg/mouse (60 mg/kg) orally, 5 treatments every other day, western diet 5 weeks, aortic sinus
# Method: (§1) In Vivo Atherosclerotic Lesion Assay:
# 12-16-week old LDL-RD male mice were orally administered with 0.2 ml of PBS or PBS with an indicated amount of the tested compound, once a day, every other day, for 5 treatments. The mice were challenged with western diet for 5 weeks and then sacrificed.
# (§2) The quantification of atherosclerotic lesions was done by calculating the lesion size in the aortic sinus as previously described [Paigen et al., Quantitative assessment of atherosclerotic lesions in mice. Atherosclerosis 1987; 68:231-240] with a few modifications. Briefly, the heart and the aorta were removed from the animals, and the peripheral fat was cleaned carefully. The hearts were embedded in Optimal Cutting Temperature (OCT) gel and frozen. Aortic sinus lesion was determined from 3-8 Oil red O-stained serial sections (10 μm thick), throughout the aortic sinus (400 μm). The lesion area was calculated using a computer analyzing method (Image Pro Plus software [version 4.5.1.29], Medical Cybernetics Corporation).
# [8] = test system: ApoE KO mice; assay: In vivo atherosclerotic lesion assay, ApoE KO mice; settings: 1 mg/mouse (40 mg/kg) orally, 5 treatments every other day, sacrificed by the end of 8 weeks, aortic sinus
# Method: as §1
# Alternatively, 14-16-week old ApoE KO mouse were orally administered with 0.2 ml of PBS or PBS with an indicated amount of the tested compound, once a day, every other day, for 5 treatments, and sacrificed by the end of 8 weeks.
# as §2
structure (smiles),measurement,setting,value
"CCCCCCCCCCCCCCCCOC[C@H](COP(=O)([O-])OCC[N+](C)(C)C)OCCCCC(=O)O [CI-201, 1-hexadecyl-2-(4-carboxy)butyl-sn-glycero-3-phosphocholine, reference compound]",IL12/23 p40 mRNA expression,[1],inhibition by CI-202 was comparable to the inhibition by CI-201
same,phosphotyrosine levels,[2]; 20 ng/ml,reduction
same,phosphotyrosine levels,"[2]; 10 μg/ml, 10 minutes",caused an increase in phosphotyrosine levels
same,phosphotyrosine levels,"[2]; 20 μg/ml, 10 minutes",caused a decrease in phosphotyrosine levels; also recorded: caused a reduction in phosphotyrosine levels
"CCCCCCCCCCCCCCCCOCC(COP(=O)(O)OCCN)OCCCCC(=O)O (stereo not drawn) [CI-202, 1-Hexadecyl-2-(4-carboxy)butyl-glycero-3-phosphoethanolamine]",IL12/23 p40 mRNA expression,[1],inhibited IL12/23 p40 mRNA expression during the whole tested time period
same,decrease of peak arthritis clinical score relative to the control mice,[3]; 0.4 mg/kg by gavage daily from day 22,42%
same,arthritis severity (arthritis clinical score),"[3]; 0.4 mg/kg by gavage daily from day 22, followed until day 36",significantly decreased arthritis severity throughout the study period
same,development of MOG-induced EAE (mean clinical score),[4],delayed disease onset and reduced clinical manifestation of EAE
same,phosphotyrosine levels,"[2]; 10 μg/ml, 10 minutes",induction of tyrosine phosphorylation
same,phosphotyrosine levels,"[2]; 20 μg/ml, 10 minutes",reduction in phosphotyrosine levels
same,production of IL12/23 p40,[5],inhibited production of IL12/23 p40 by bone marrow-derived cells in a dose-dependent manner
same,dose at which (significant) toxicity was detected,"[6]; mouse, 24 h",above 50 μg/ml
"CCCCCCCCCCCCCCCCOC[C@H](COP(=O)([O-])OCC[N+](C)(C)C)OCCCCC(O)CO (stereo partly drawn) [di-OH, 1-Hexadecyl-2-(5,6-dihydroxy)hexanyl-glycero-3-phosphocholine]",decrease of atherosclerotic lesion area as compared to the control (PBS),[7],25%
same,dose at which (significant) toxicity was detected,"[6]; peritoneal macrophages, 24 hours, doses 2-150 μg/ml",≥ 20 µg/mL
"CCCCCCCCCCCCCCCCOCC(COP(=O)([O-])OCC[N+](C)(C)C)OCCCCC(OC)OC (stereo not drawn) [diMeAc, 1-hexadecyl-2-(5′,5′-dimethoxypentyl)-glycero-3-phosphocholine]",decrease of atherosclerotic lesion area as compared to the control (PBS),[8],23%
